Patent US10816552B2 (The Governing Council of the University of Toronto, priority 2014, dated 2020)

Test system: NADPH:cytochrome P450 oxidoreductase (POR)
Format: cell-based
Settings: mutant HCT116, 10 μM, 3 hours
Protocol: FIGS. 10A-C show a) the mass cytometry histograms of wild-type HCT116 cells incubated with 10 μM of the exemplary compound, Telox-2, for 3 hours in atmosphere containing either 21% O2, 1% O2, 0.2% O2, or <0.02% O2); b) the mass cytometry histograms of mutant HCT116 cells overexpressing POR incubated with 10 μM Telox-2 for 3 hours in atmosphere containing either 21% O2, 1% O2, 0.2% O2 or <0.02% O2; and c) the mass cytometry histograms of mutant HCT116 cells unable to express POR incubated with 10 μM Telox-2 for 3 hours in atmosphere containing either 21% O2, 1% O2, 0.2% O2, or <0.02% O2.
To confirm the reductive metabolism of Telox-2 it investigated using mutant HCT116 cell lines that either overexpressed NADPH:cytochrome P450 oxidoreductase (POR) or had this enzyme knocked out (FIG. 10 part b).

## O=[N+]([O-])c1nccn1CCc1ccc[te]1 [Telox-2, 2-nitro-1-(2-(tellurophen-2-yl)ethyl)-1H-imidazole]
  labelling in POR-knockout cell line compared to wild type: nearly identical to that in the wild type
  labelling in cell line overexpressing POR compared to wild type: greatly enhanced labelling
